Assay results published in patent publication US5880099A, “Inositol polyphosphates and methods of using same” (The Regents of the University of California, priority 1997, dated 1999).
Entries after “also recorded” stand apart in the source; their conditions may differ.

Experiments:
[1] = system: T84 colonic epithelial cells (carbachol-mediated inhibition of chloride ion secretion); assay: Reversal of carbachol-mediated inhibition of thapsigargin-stimulated chloride ion secretion in T84 cells; format: cell-based, human; settings: carbachol 10^-4 M, thapsigargin 1 μM
Protocol: T84 colonic epithelial cells were treated with D,L-1,2-cyclohexylidene-Ins(3,4,5,6)P4 /AM, 1-Bu-2-Bt-Ins(3,4,5,6)P4 /AM, Bu2 -Ins(3,4,5,6)P4 /AM, 3-Bt-2-Bu-Ins(1,4,5,6)P4 /AM, Bu2 -Ins(1,4,5,6)P4 /AM, 1-Bt-2-Bu-Ins(3,4,5,6)P4 /AM or 3-Bu-2-Bt-Ins(1,4,5,6)P4 /AM and the short circuit current was measured.
One set of cells was preincubated for 30 min with an inositol polyphosphate derivative. The other two sets of cells were preincubated with vehicle, alone. Measurement of Isc was initiated at time 0. At 5 min, carbachol (10^-4 M) was added to one set of cells preincubated with vehicle alone (designated "Carbachol" in FIG. 5) and to the set of cells preincubated with inositol polyphosphate derivatives (designated "Carbachol+D,L-1,2-Cyclohexylidene-Ins(3,4,5,6)P4 /AM" in FIG. 5A). At 30 min, 1 μM thapsigargin was added. Data were collected for n=4 to 6 experiments.

[2] = system: colonic epithelial T84 cells (calcium-mediated chloride ion secretion); assay: Inhibition of calcium-mediated chloride ion secretion (Table I summary); format: cell-based, human; settings: pathway: Ins (3,4,5,6)P4
Excerpt: The invention provides compounds that are agonists or antagonists of inositol polyphosphates. Inositol polyphosphate derivatives can function as inositol polyphosphate agonists and antagonists. The effects of compounds of the invention on Ins(3,4,5,6)P4 - and PtdInsP3 -mediated inhibition of calcium-mediated chloride ion secretion are described in the Examples and summarized in Table I.
Enantiomerically pure 1,2-Bt2 -Ins(3,4,5,6)P4 /AM was synthesized to determine if 1,2-Bt2 -Ins(3,4,5,6)P4 /AM mediates the uncoupling of chloride ion secretion from intracellular calcium concentrations. T84 cells (passages 18-48) were maintained as described previously (Weymer, et al., J. Clin. Invest. 76:1828 (1985)), which is incorporated herein by reference. After 7-10 days of incubation on SNAP-WELLS (Corning Costar; Cambridge, Mass.), monolayers had formed tight junctions. Cell monolayers were preincubated with 100, 200 or 400 μM Bt2 -Ins(3,4,5,6)P4 /AM for 30 min prior to mounting. After an additional 30 min, 0.1 mM histamine was added and chloride ion secretion was monitored. Chloride ion secretion was measured as short circuit current (Isc) across T84 monolayers grown to confluence and mounted in Ussing chambers equipped with voltage clamps (Physiologic Instruments; San Diego, Calif.). Data was acquired and analyzed using "Acquire and Analyze" software (Physiologic Instruments).

[3] = system: T84 cells (Ins(3,4,5,6)P4 inhibition of histamine-stimulated chloride ion secretion); assay: Reversal of Bt2 -Ins(3,4,5,6)P4 /AM inhibition of histamine-stimulated chloride ion secretion in T84 cells; format: cell-based, human; settings: T84 cells, histamine-stimulated
Protocol: Initial studies were directed towards understanding structural determinants of Ins(3,4,5,6)P4 responsible for the inhibitory effect on calcium-mediated chloride ion secretion. A series of cell permeable inositol polyphosphate derivatives were synthesized. These derivatives contained either one or two non-hydrolyzable chemical groups on the 1, 2 or 3 position. T84 monolayers were preincubated for 30 minutes with 200 μM of 2-Bt-1-Me-Ins(3,4,5,6)P4 /AM, Me2 -Ins(3,4,5,6)P4 /AM, Me2 -Ins(1,4,5,6)P4 /AM or 2-Bt-3-Me-Ins(1,4,5,6)P4 /AM.
Following the incubation, cells were mounted in Ussing chambers. Calcium-mediated chloride ion secretion was stimulated with histamine (10^-4 M). Control values were the response to histamine in coincubated monolayers. Data are represented as mean peak ΔIsc ±SEM, expressed as % control for 8 to 10 experiments. Significant differences were identified using the Student's two-tailed t test.
T84 cells were preincubated with cell permeant inositol polyphosphates as described above to determine if any of the inositol polyphosphate derivatives function as antagonists of Ins(3,4,5,6)P4 inhibition of calcium-mediated chloride ion secretion. Following histamine stimulation, short circuit current was measured. […] The % control shown in FIG. 3 represents ΔIsc over peak Isc in control monolayers stimulated with histamine. However, […]

[4] = system: T84 cells (EGF induced inhibition of chloride ion secretion); settings: cited from earlier work
[5] = system: phosphatidylinositol 3-kinase (PI 3-kinase); settings: Uribe et al. 1996b; cited from earlier work
[6] = system: T84 cells (EGF induced inhibition of chloride ion secretion); assay: EGF induced inhibition of carbachol-stimulated chloride ion secretion in T84 cells and its reversal; format: cell-based, human; settings: EGF 16.3 nM, carbachol 100 μM
Protocol: After an additional 15 min incubation, 100 μM carbachol was added to acutely elevate intracellular calcium concentrations. Controls also were stimulated with carbachol but were not pretreated with EGF. Data are the means of duplicate measurements from a representative experiment (total of three experiments).

[7] = system: Ins(3,4,5,6)P4; settings: background; cited from earlier work

Compound | reversal of carbachol-mediated inhibition of chloride ion secretion (in words) [1] | Mechanism and Inositol Polyphosphate Pathway Affected [2] | reversal of the inhibitory effect of Bt2 -Ins(3,4,5,6)P4 /AM / Ins(3,4,5,6)P4-mediated inhibition (in words) [3] | reversal of EGF induced inhibition of chloride ion secretion (in words) ([4]; Uribe et al. 1996b) | effect on formation of PI 3-kinase products (in words) [5] | effect on calcium-mediated chloride ion secretion induced by carbachol and thapsigargin (in words) ([4]; Uribe et al. 1996) | effect on carbachol-stimulated chloride ion secretion / EGF induced inhibition (in words) [6] | increase in Ins(3,4,5,6)P4 levels [7]
CC(=O)OCOP(=O)(OCOC(C)=O)O[C@H]1[C@H](OP(=O)(OCOC(C)=O)OCOC(C)=O)[C@@H](OP(=O)(OCOC(C)=O)OCOC(C)=O)[C@H]2OC3(CCCCC3)O[C@H]2[C@@H]1OP(=O)(OCOC(C)=O)OCOC(C)=O (relative stereo) [rac-1,2-Di-O-cycloheylidene-myo-inositol 3,4,5,6-tetrakisphosphate octakis(acetoxymethyl)ester] | enhanced chloride ion secretion; also recorded: reversed the inhibitory effect of carbachol on calcium-mediated chloride ion secretion; also recorded: reversed the carbachol-mediated inhibition of chloride ion secretion stimulated by thapsigargin | Antagonist of | – | – | – | – | – | –
CCCCO[C@@H]1[C@H](OC(=O)CCC)[C@H](OP(=O)(OCOC(C)=O)OCOC(C)=O)[C@@H](OP(=O)(OCOC(C)=O)OCOC(C)=O)[C@H](OP(=O)(OCOC(C)=O)OCOC(C)=O)[C@H]1OP(=O)(OCOC(C)=O)OCOC(C)=O [1-Bu-2-Bt-Ins(3,4,5,6)P4 /AM, D-1-O-Butyl-2-O-butyryl-myo-inositol 3,4,5,6-tetrakisphosphate octakis(acetoxymethyl)ester] | enhanced chloride ion secretion; also recorded: reversed the carbachol-mediated inhibition of chloride ion secretion stimulated by thapsigargin | Antagonist of | reversed Ins(3,4,5,6)P4 -mediated inhibition of chloride ion secretion | – | – | – | – | –
CCCCO[C@@H]1[C@H](OCCCC)[C@H](OP(=O)(OCOC(C)=O)OCOC(C)=O)[C@@H](OP(=O)(OCOC(C)=O)OCOC(C)=O)[C@H](OP(=O)(OCOC(C)=O)OCOC(C)=O)[C@H]1OP(=O)(OCOC(C)=O)OCOC(C)=O [Bu2 -Ins(3,4,5,6)P4 /AM, D-1,2-Di-O-butyl-myo-inositol 3,4,5,6-tetrakisphosphate octakis(acetozymethyl)ester] | enhanced chloride ion secretion; also recorded: reversed the carbachol-mediated inhibition of chloride ion secretion stimulated by thapsigargin | Antagonist of | reversed Ins(3,4,5,6)P4 -mediated inhibition of chloride ion secretion | – | – | – | – | –
COC[C@H]1OC(=O)c2coc3c2[C@@]1(C)C1=C(C3=O)[C@@H]2CCC(=O)[C@@]2(C)C[C@H]1OC(C)=O [Wortmannin, reference compound] | – | – | – | reversed the EGF induced inhibition of chloride ion secretion | blocked formation of PtdInsP3 and PtdInsP2 | – | – | –
EGF: epidermal growth factor (EGF) | – | – | – | – | stimulated an increase in levels of the PI 3-kinase products | inhibits calcium-mediated chloride ion secretion | decreased chloride ion secretion; also recorded: inhibited carbachol stimulated chloride ion secretion | 1.7 -fold
